Assay results as given in patent publication US20260191809A1, “Pharmaceutical Compositions Of D10-Docosahexaenoic Acid Or Esters Thereof” (BioJiva LLC, priority 2022, published 2026).

Key:
[1] = mouse, in vivo
Text: Mature adult C57BL/6J mice were fed for 77 days with a customized rodent diet containing 0.5% w/w D-DHA and no natural DHA. The animals were sacrificed, and plasma, red blood cells and retinal tissues were dissected at study Days 8, 19, 38, 77, (six animals per time point, 3 males+3 females). Active D-DHA+DHA were extracted from samples and derivatized into methyl esters with a mixture of heptane/toluene (63:37 by volume), and methanol/dimethoxypropane/sulfuric acid (85:11:4 by volume) by gentle shaking at 80° C. for 2 hours, followed by separation and drying down of the organic phase under nitrogen. D-DHA+DHA methyl esters were structurally identified and quantified by gas chromatography coupled with a tandem mass spectrometry detector and D-DHA substitution levels (in percent of total DHA) were calculated.

geographic atrophy = test: Protection against geographic atrophy after intravitreal ferric ammonium citrate; assay type: in vivo, C57BL/6J mice
Text: In this example, two cohorts of adult male wild-type C57BL/6J mice (Jackson Labs) were used. Both cohorts were fed identical feed containing 0.25% or 0.5% D-DHA or matching amounts of DHA as controls. After 4 weeks, the mice were given an intravitreal injection of 1 microliter of 0.5 millimolar ferric ammonium citrate diluted in 0.9% saline (test) or 1 microliter of 0.9% saline (control). Mice were then continued on their respective diets for 4 weeks after injection in order to evaluate whether D-DHA could protect against geographic atrophy which is related to AMD.

[2] = Predicted steady-state D-DHA substitution and plasma decline without dosing in patients, modeled from the mouse data; design: species or system human
[3] = as above; design: species or system human; settings: for D-DHA substitution rate at steady-state (% of total DHA): DHA in human diet 130 mg
Text: In contrast to controlled experimental diets, naturally occurring DHA is consumed by patients treated with D-DHA which can dilute the relative percentage of administered D-DHA absorbed with the total DHA pool and its final concentration at steady state in blood and eventually in the target tissue such as retina. The data and standard curves referred to above allow for the determination of retinal steady-state active D-DHA concentrations with reasonable accuracy by calculating the D-DHA/total DHA ratio in plasma and/or red blood cells. Table 4 exemplifies this by using a mean daily dietary intake of about 130 mg of DHA per day (which represents the 90th percentile of the mean usual DHA intake by males >51 years of age in the US.
FIGS. 3, 4, 5, and 6 illustrate how measuring plasma and red blood cell active D-DHA concentrations can be used to predict expected retinal steady-state concentrations. With a known fixed daily dose and the measured of active D-DHA substitution rate at steady-state, this also allows to approximate and monitor the mean dietary DHA intake of individual patients and permits either a timely adjustment of the daily D-DHA dose or dietary interventions to reduce natural DHA intake until the desired therapeutic active D-DHA substitution levels, preferably about 50% or more, can be reached.
In each case, the first order kinetics evidence that a dose of 250 mg dose of D-DHA will provide for a steady-state ratio of active D-DHA based on the total DHA concentration present, as set forth in Table 4. Extrapolating backwards from the case in Table 4, a dose of at least 130 mg/day of D-DHA should provide a 1:1 ratio of active D-DHA to DHA. That ratio has been shown above to be therapeutic. And a dose of 250 mg of higher should provide a ratio of 1.9:1 or higher which provides a margin for non-compliance as described herein above.
Tables 5, 6, and 7 are based on Table 2 and describe the time it takes for plasma D-DHA levels to fall below 50% or below 20% with 5 different daily doses of D-DHA in (i) patients in the 90th percentile of daily intake consuming up to 130 mg DHA (Table 5), (ii) those in the 95th percentile with a daily intake of up to 180 mg DHA (Table 6), and (iii) an example of a patient consuming more than one meal of oily fish per week with up to 260 mg daily DHA intake.

[4] = Daily D-DHA Dose 250 mg, Background DHA/Day 130 mg
[5] = Daily D-DHA Dose 250 mg, Background DHA/Day 180 mg
[6] = Daily D-DHA Dose 250 mg, Background DHA/Day 260 mg
[7] = Daily D-DHA Dose 500 mg, Background DHA/Day 130 mg
[8] = Daily D-DHA Dose 500 mg, Background DHA/Day 180 mg
[9] = Daily D-DHA Dose 500 mg, Background DHA/Day 260 mg
[10] = Daily D-DHA Dose 750 mg, Background DHA/Day 260 mg
[11] = Daily D-DHA Dose 1000 mg, Background DHA/Day 260 mg

accretion half-life [1]: ~210 h | time to red blood cell steady state concentration of active D-DHA after the start of therapy ([2]; red blood cell, patients): about 45 days | time to steady state concentration of active D-DHA after start of therapy ([2]; skeletal muscle tissue): about 11 weeks | ratio of D-DHA to DHA at steady state ([3]; 250 mg D-DHA per day, on average about 130 mg per day of DHA, plasma, red blood cells, liver, skeletal muscle): 1.92 to 1 | Time to reach 20% in Plasma (0.2:1 D-DHA to DHA Ratio) w/o taking oral D-DHA [3, 4]: ≤ 77 days | Time to reach ≤50% in Plasma (1:1 D-DHA to DHA Ratio) w/o taking oral D-DHA [3, 4]: ≤ 22 days | Days to reach ≤50% in Plasma (1:1 D-DHA to DHA Ratio) w/o taking oral D-DHA [3, 5]: ≤ 11 days | Time to reach 20% in Plasma (0.2:1 D-DHA to DHA Ratio) w/o taking oral D-DHA [3, 5]: ≤ 66 days | Days to reach ≤50% in Plasma (1:1 D-DHA to DHA Ratio) w/o taking oral D-DHA [3, 6]: below 50% | Time to reach 20% in Plasma (0.2:1 D-DHA to DHA Ratio) w/o taking oral D-DHA [3, 6]: ≤ 29 days | Time to reach 20% in Plasma (0.2:1 D-DHA to DHA Ratio) w/o taking oral D-DHA [3, 7]: ≤ 46 days | Time to reach ≤50% in Plasma (1:1 D-DHA to DHA Ratio) w/o taking oral D-DHA [3, 7]: ≤ 6 days | Days to reach ≤50% in Plasma (1:1 D-DHA to DHA Ratio) w/o taking oral D-DHA [3, 8]: ≤ 35 days | Time to reach 20% in Plasma (0.2:1 D-DHA to DHA Ratio) w/o taking oral D-DHA [3, 8]: ≤ 90 days | Days to reach ≤50% in Plasma (1:1 D-DHA to DHA Ratio) w/o taking oral D-DHA [3, 9]: ≤ 8 days | Time to reach 20% in Plasma (0.2:1 D-DHA to DHA Ratio) w/o taking oral D-DHA [3, 9]: ≤ 63 days | Time to reach ≤50% in Plasma (1:1 D-DHA to DHA Ratio) w/o taking oral D-DHA ([3]; Daily D-DHA Dose 750 mg, Background DHA/Day 130 mg): ≤ 60 days | Days to reach ≤50% in Plasma (1:1 D-DHA to DHA Ratio) w/o taking oral D-DHA ([3]; Daily D-DHA Dose 750 mg, Background DHA/Day 180 mg): ≤ 49 days | Days to reach ≤50% in Plasma (1:1 D-DHA to DHA Ratio) w/o taking oral D-DHA [3, 10]: ≤ 26 days | Time to reach 20% in Plasma (0.2:1 D-DHA to DHA Ratio) w/o taking oral D-DHA [3, 10]: ≤ 81 days | Time to reach ≤50% in Plasma (1:1 D-DHA to DHA Ratio) w/o taking oral D-DHA ([3]; Daily D-DHA Dose 1000 mg, Background DHA/Day 130 mg): ≤ 70 days | Days to reach ≤50% in Plasma (1:1 D-DHA to DHA Ratio) w/o taking oral D-DHA ([3]; Daily D-DHA Dose 1000 mg, Background DHA/Day 180 mg): ≤ 59 days | Days to reach ≤50% in Plasma (1:1 D-DHA to DHA Ratio) w/o taking oral D-DHA [3, 11]: ≤ 38 days | Time to reach 20% in Plasma (0.2:1 D-DHA to DHA Ratio) w/o taking oral D-DHA [3, 11]: ≤ 93 days | Time to reach ≤50% in Plasma (1:1 D-DHA to DHA Ratio) w/o taking oral D-DHA ([3]; Daily D-DHA Dose 1250 mg, Background DHA/Day 130 mg): ≤ 77 days | Days to reach ≤50% in Plasma (1:1 D-DHA to DHA Ratio) w/o taking oral D-DHA ([3]; Daily D-DHA Dose 1250 mg, Background DHA/Day 180 mg): ≤ 67 days | Days to reach ≤50% in Plasma (1:1 D-DHA to DHA Ratio) w/o taking oral D-DHA ([3]; Daily D-DHA Dose 1250 mg, Background DHA/Day 260 mg): ≤ 47 days | D-DHA substitution rate at steady-state (% of total DHA) ([3]; Fixed daily D-DHA dose 250 mg): 66% | D-DHA substitution rate at steady-state (% of total DHA) ([3]; Fixed daily D-DHA dose 500 mg): 79% | D-DHA substitution rate at steady-state (% of total DHA) ([3]; Fixed daily D-DHA dose 1000 mg): 88% | time to plasma steady state concentration of active D-DHA after the start of therapy ([3]; plasma, patients): about 14 days
SMILES: [2H]C([2H])(/C=C\CC)/C=C\C([2H])([2H])/C=C\C([2H])([2H])/C=C\C([2H])([2H])/C=C\C([2H])([2H])/C=C\CCC(=O)O [D-DHA, D-10-docosahexaenoic acid]
protection against geographic atrophy (geographic atrophy; concentration of D-DHA at least 50% of the total DHA in the retina, feed 0.25% or 0.5% D-DHA, 4 weeks after iron injection): fully protected | protection against geographic atrophy (geographic atrophy; lower concentrations of D-DHA to DHA in the retina (below 50%)): protection was achieved but at reduced rates | protection against geographic atrophy (geographic atrophy; ratios of about 1:4 of D-DHA to DHA): protection is accorded | protection against geographic atrophy (geographic atrophy; ratios of at least about 1:1 D-DHA to DHA): maximal
